Laboratory results as given in EP0726263A2, “Herbicidal (1,3,4)oxadiazoles and thiadiazoles” (American Cyanamid Company, priority 1995, dated 1996).

Tests used:
Assay type in all cases: in vivo
Ipomoea hederacea [1] = assay: Herbicidal activity, preemergence test; conditions: pre; sprayed onto soil, 800 g of active material per hectare; evaluated 3 weeks after treatment
Description: (§1) To evaluate their herbicidal activity, compounds according to the invention are tested using a representative range of plants: TRZAW Triticum aestivum HORVW Hordeum vulgare ZEAMX Zea mays GOSHI Gossypium hirsutum HELAN Helianthus annuus GLYMA Glycine max ALOMY Alopecurus myosuroides SETVI Setaria viridis ECHCG Echinochloa crus-galli GALAP Galium aparine STEME Stellaria media VERPE Veronica persica VIOAR Viola arvensis IPOHE Ipomoea hederacea LAMPU Lamium purpureum PAPRH Papaver rhoeas MATIN Matricaria inodora AMARE Amaranthus retroflexus ABUTH Abutilon theophrasti AMBEL Ambrosia artemisifolia CHEAL Chenopodium album
(§2) The tests fall into two categories, preemergence and postemergence. The preemergence tests involve spraying a liquid formulation of the compound onto the soil in which the seeds have recently been sown. The postemergence tests involve spraying a liquid formulation of the compound onto seedling plants.
(§3) The soil used in the tests is a prepared horticultural loam.
(§4) The formulations used in the tests are prepared from solutions of the test compounds in acetone containing 0.4% by weight of an alkylphenol/ethylene oxide condensate available under the trade mark TRITON X-155. These acetone solutions are diluted with water and the resulting formulations applied at dosage levels corresponding to 800 g of active material per hectare in a volume equivalent to 900 litres per hectare.
(§5) In the preemergence tests untreated sown soil and in the postemergence tests untreated soil bearing seedling plants are used as controls.
(§6) Results of herbicide evaluation are expressed on a rating scale (0-9). The scale is based upon a visual observation of plant stand, vigor, malformation, size, chlorosis, and general plant appearance as compared to a control. Preemergence and postemergence treatments are evaluated at 3 and 2 weeks after treatment, respectively.

Setaria viridis [2] = assay: Herbicidal activity, preemergence test; conditions: pre; sprayed onto soil, 800 g of active material per hectare; evaluated 3 weeks after treatment
Description: as §1, §2, §3, §4, §5, §6

Zea mays [3] = assay: Herbicidal activity, preemergence test; conditions: pre; sprayed onto soil, 800 g of active material per hectare; evaluated 3 weeks after treatment
Description: as §1, §2, §3, §4, §5, §6

Chenopodium album [4] = assay: Herbicidal activity, preemergence test; conditions: pre; sprayed onto soil, 800 g of active material per hectare; evaluated 3 weeks after treatment
Description: as §1, §2, §3, §4, §5, §6

Galium aparine [5] = assay: Herbicidal activity, preemergence test; conditions: pre; sprayed onto soil, 800 g of active material per hectare; evaluated 3 weeks after treatment
Description: as §1, §2, §3, §4, §5, §6

Lamium purpureum [6] = assay: Herbicidal activity, preemergence test; conditions: pre; sprayed onto soil, 800 g of active material per hectare; evaluated 3 weeks after treatment
Description: as §1, §2, §3, §4, §5, §6

Triticum aestivum [7] = assay: Herbicidal activity, preemergence test; conditions: pre; sprayed onto soil, 800 g of active material per hectare; evaluated 3 weeks after treatment
Description: as §1, §2, §3, §4, §5, §6

Veronica persica [8] = assay: Herbicidal activity, preemergence test; conditions: pre; sprayed onto soil, 800 g of active material per hectare; evaluated 3 weeks after treatment
Description: as §1, §2, §3, §4, §5, §6

Ambrosia artemisifolia [9] = assay: Herbicidal activity, preemergence test; conditions: pre; sprayed onto soil, 800 g of active material per hectare; evaluated 3 weeks after treatment
Description: as §1, §2, §3, §4, §5, §6

Hordeum vulgare [10] = assay: Herbicidal activity, preemergence test; conditions: pre; sprayed onto soil, 800 g of active material per hectare; evaluated 3 weeks after treatment
Description: as §1, §2, §3, §4, §5, §6

Papaver rhoeas [11] = assay: Herbicidal activity, preemergence test; conditions: pre; sprayed onto soil, 800 g of active material per hectare; evaluated 3 weeks after treatment
Description: as §1, §2, §3, §4, §5, §6

Alopecurus myosuroides [12] = assay: Herbicidal activity, preemergence test; conditions: pre; sprayed onto soil, 800 g of active material per hectare; evaluated 3 weeks after treatment
Description: as §1, §2, §3, §4, §5, §6

Amaranthus retroflexus [13] = assay: Herbicidal activity, preemergence test; conditions: pre; sprayed onto soil, 800 g of active material per hectare; evaluated 3 weeks after treatment
Description: as §1, §2, §3, §4, §5, §6

Stellaria media [14] = assay: Herbicidal activity, preemergence test; conditions: pre; sprayed onto soil, 800 g of active material per hectare; evaluated 3 weeks after treatment
Description: as §1, §2, §3, §4, §5, §6

Matricaria inodora [15] = assay: Herbicidal activity, preemergence test; conditions: pre; sprayed onto soil, 800 g of active material per hectare; evaluated 3 weeks after treatment
Description: as §1, §2, §3, §4, §5, §6

Gossypium hirsutum [16] = assay: Herbicidal activity, preemergence test; conditions: pre; sprayed onto soil, 800 g of active material per hectare; evaluated 3 weeks after treatment
Description: as §1, §2, §3, §4, §5, §6

Glycine max [17] = assay: Herbicidal activity, preemergence test; conditions: pre; sprayed onto soil, 800 g of active material per hectare; evaluated 3 weeks after treatment
Description: as §1, §2, §3, §4, §5, §6

Abutilon theophrasti [18] = assay: Herbicidal activity, preemergence test; conditions: pre; sprayed onto soil, 800 g of active material per hectare; evaluated 3 weeks after treatment
Description: as §1, §2, §3, §4, §5, §6

Ipomoea hederacea [19] = assay: Herbicidal activity, postemergence test; conditions: post; sprayed onto seedling plants, 800 g of active material per hectare; evaluated 2 weeks after treatment
Description: as §1, §2, §3, §4, §5, §6

Setaria viridis [20] = assay: Herbicidal activity, postemergence test; conditions: post; sprayed onto seedling plants, 800 g of active material per hectare; evaluated 2 weeks after treatment
Description: as §1, §2, §3, §4, §5, §6

Zea mays [21] = assay: Herbicidal activity, postemergence test; conditions: post; sprayed onto seedling plants, 800 g of active material per hectare; evaluated 2 weeks after treatment
Description: as §1, §2, §3, §4, §5, §6

Chenopodium album [22] = assay: Herbicidal activity, postemergence test; conditions: post; sprayed onto seedling plants, 800 g of active material per hectare; evaluated 2 weeks after treatment
Description: as §1, §2, §3, §4, §5, §6

Galium aparine [23] = assay: Herbicidal activity, postemergence test; conditions: post; sprayed onto seedling plants, 800 g of active material per hectare; evaluated 2 weeks after treatment
Description: as §1, §2, §3, §4, §5, §6

Lamium purpureum [24] = assay: Herbicidal activity, postemergence test; conditions: post; sprayed onto seedling plants, 800 g of active material per hectare; evaluated 2 weeks after treatment
Description: as §1, §2, §3, §4, §5, §6

Triticum aestivum [25] = assay: Herbicidal activity, postemergence test; conditions: post; sprayed onto seedling plants, 800 g of active material per hectare; evaluated 2 weeks after treatment
Description: as §1, §2, §3, §4, §5, §6

Veronica persica [26] = assay: Herbicidal activity, postemergence test; conditions: post; sprayed onto seedling plants, 800 g of active material per hectare; evaluated 2 weeks after treatment
Description: as §1, §2, §3, §4, §5, §6

Ambrosia artemisifolia [27] = assay: Herbicidal activity, postemergence test; conditions: post; sprayed onto seedling plants, 800 g of active material per hectare; evaluated 2 weeks after treatment
Description: as §1, §2, §3, §4, §5, §6

Hordeum vulgare [28] = assay: Herbicidal activity, postemergence test; conditions: post; sprayed onto seedling plants, 800 g of active material per hectare; evaluated 2 weeks after treatment
Description: as §1, §2, §3, §4, §5, §6

Papaver rhoeas [29] = assay: Herbicidal activity, postemergence test; conditions: post; sprayed onto seedling plants, 800 g of active material per hectare; evaluated 2 weeks after treatment
Description: as §1, §2, §3, §4, §5, §6

Alopecurus myosuroides [30] = assay: Herbicidal activity, postemergence test; conditions: post; sprayed onto seedling plants, 800 g of active material per hectare; evaluated 2 weeks after treatment
Description: as §1, §2, §3, §4, §5, §6

Amaranthus retroflexus [31] = assay: Herbicidal activity, postemergence test; conditions: post; sprayed onto seedling plants, 800 g of active material per hectare; evaluated 2 weeks after treatment
Description: as §1, §2, §3, §4, §5, §6

Stellaria media [32] = assay: Herbicidal activity, postemergence test; conditions: post; sprayed onto seedling plants, 800 g of active material per hectare; evaluated 2 weeks after treatment
Description: as §1, §2, §3, §4, §5, §6

Matricaria inodora [33] = assay: Herbicidal activity, postemergence test; conditions: post; sprayed onto seedling plants, 800 g of active material per hectare; evaluated 2 weeks after treatment
Description: as §1, §2, §3, §4, §5, §6

Gossypium hirsutum [34] = assay: Herbicidal activity, postemergence test; conditions: post; sprayed onto seedling plants, 800 g of active material per hectare; evaluated 2 weeks after treatment
Description: as §1, §2, §3, §4, §5, §6

Glycine max [35] = assay: Herbicidal activity, postemergence test; conditions: post; sprayed onto seedling plants, 800 g of active material per hectare; evaluated 2 weeks after treatment
Description: as §1, §2, §3, §4, §5, §6

Abutilon theophrasti [36] = assay: Herbicidal activity, postemergence test; conditions: post; sprayed onto seedling plants, 800 g of active material per hectare; evaluated 2 weeks after treatment
Description: as §1, §2, §3, §4, §5, §6

## C[C@H](NC(=O)c1nnc(-c2ccccc2F)o1)c1ccccc1 [Example 10]
Ipomoea hederacea [1]
  IPOHE control rating (0-9): 0 (no effect)
Setaria viridis [2]
  SETVI control rating (0-9): 3 (moderate effect)
Zea mays [3]
  ZEAMX control rating (0-9): 0 (no effect)
Chenopodium album [4]
  CHEAL control rating (0-9): 8 (approaching complete kill)
Galium aparine [5]
  GALAP control rating (0-9): 0 (no effect)
Lamium purpureum [6]
  LAMPU control rating (0-9): 8 (approaching complete kill)
Triticum aestivum [7]
  TRZAW control rating (0-9): 0 (no effect)
Veronica persica [8]
  VERPE control rating (0-9): 9 (complete kill)
Ambrosia artemisifolia [9]
  AMBEL control rating (0-9): 3 (moderate effect)
Hordeum vulgare [10]
  HORVW control rating (0-9): 0 (no effect)
Papaver rhoeas [11]
  PAPRH control rating (0-9): 9 (complete kill)
Alopecurus myosuroides [12]
  ALOMY control rating (0-9): 1 (trace effect)
Amaranthus retroflexus [13]
  AMARE control rating (0-9): 8 (approaching complete kill)
Stellaria media [14]
  STEME control rating (0-9): 9 (complete kill)
Matricaria inodora [15]
  MATIN control rating (0-9): 8 (approaching complete kill)
Gossypium hirsutum [16]
  GOSHI control rating (0-9): 0 (no effect)
Glycine max [17]
  GLXMA control rating (0-9): 2 (slight effect)
Abutilon theophrasti [18]
  ABUTH control rating (0-9): 0 (no effect)
Ipomoea hederacea [19]
  IPOHE control rating (0-9): 8 (approaching complete kill)
Setaria viridis [20]
  SETVI control rating (0-9): 9 (complete kill)
Zea mays [21]
  ZEAMX control rating (0-9): 3 (moderate effect)
Chenopodium album [22]
  CHEAL control rating (0-9): 7 (good herbicidal effect)
Galium aparine [23]
  GALAP control rating (0-9): 6 (herbicidal effect)
Lamium purpureum [24]
  LAMPU control rating (0-9): 8 (approaching complete kill)
Triticum aestivum [25]
  TRZAW control rating (0-9): 2 (slight effect)
Veronica persica [26]
  VERPE control rating (0-9): 9 (complete kill)
Ambrosia artemisifolia [27]
  AMBEL control rating (0-9): 7 (good herbicidal effect)
Hordeum vulgare [28]
  HORVW control rating (0-9): 4 (injury)
Papaver rhoeas [29]
  PAPRH control rating (0-9): 8 (approaching complete kill)
Alopecurus myosuroides [30]
  ALOMY control rating (0-9): 0 (no effect)
Amaranthus retroflexus [31]
  AMARE control rating (0-9): 9 (complete kill)
Stellaria media [32]
  STEME control rating (0-9): 9 (complete kill)
Matricaria inodora [33]
  MATIN control rating (0-9): 0 (no effect)
Gossypium hirsutum [34]
  GOSHI control rating (0-9): 8 (approaching complete kill)
Glycine max [35]
  GLXMA control rating (0-9): 4 (injury)
Abutilon theophrasti [36]
  ABUTH control rating (0-9): 9 (complete kill)
